The values below come from EPA's ToxRefDB 2.

A value given as a limit tells only on which side of the number the result lay.

What is called LOAEL is the lowest dose or exposure tested at which an adverse effect was seen. For orientation: NOAEL means the highest tested level that showed no adverse finding.

One series has as its system rabbit. The conditions noted are these: Prenatal developmental toxicity study, new zealand white, Oral, Gavage/Intubation, dose end: 18 GD, group: maternal.
Series [1] relates to rat. The conditions noted are these: Prenatal developmental toxicity study, sprague dawley, Oral, Gavage/Intubation, dose end: 17 GD.
Series [2] relates to rat. Particulars: Subchronic oral toxicity in rodents, sprague dawley, Gavage/Intubation, dose end: 90 day, group: systemic.
Series [3] concerns rat. Particulars: Carcinogenicity, fischer, Oral, Feed, dose end: 105 week, group: systemic.
In series [4] the test system is rat. Particulars: Subchronic oral toxicity in rodents, fischer, Feed, dose end: 13 week, group: systemic.
The subject of series [5] is mouse. The conditions noted are these: Subchronic oral toxicity in rodents, b6c3f1, Feed, dose end: 13 week, group: systemic.
Series [6] deals with mouse. The conditions noted are these: Carcinogenicity, b6c3f1, Oral, Feed, dose end: 105 week, group: systemic.
The subject of series [7] is rat. Particulars: Combined chronic toxicity/carcinogenicity, sprague dawley, Oral, Feed, dose end: 31 month, group: systemic.
Series [8] relates to mouse. Particulars: Carcinogenicity, cd1, Oral, Feed, dose end: 78 week, group: systemic.
In another series the test system is primate. The conditions noted are these: Subchronic oral toxicity in nonrodent, rhesus, Feed, dose end: 6 month, group: systemic, systemic / organ weight / thyroid gland / absolute.
For series [9], the system named is rat. The conditions noted are these: Prenatal developmental toxicity study, sprague dawley, Oral, Gavage/Intubation, dose end: 15 GD.
Series [10] relates to rat. Particulars: Multigenerational reproductive toxicity study, sprague dawley, Oral, Feed, dose end: 2 generation.
A further series concerns dog. The conditions noted are these: Chronic toxicity; beagle; Oral; Feed; dose end: 12 month; group: systemic; systemic / hematology / anemia / anemia - hemolytic + systemic / hematology / erythrocyte (rbc) count differential / erythrocyte (rbc) + ….
[11] abbreviates: systemic / in life observation / body weight / body weight + systemic / in life observation / clinical signs / soft stools + systemic / in ….
[12] abbreviates: group: developmental, systemic / in life observation / body weight / fetal weight.
[13] abbreviates: group: maternal, systemic / in life observation / body weight / body weight gain + systemic / in life observation / food consumption / food consumption.
Where [14] appears, read: systemic / pathology microscopic / stomach / acanthosis + systemic / pathology microscopic / stomach / hyperkeratosis + systemic / clinical ….
[15] abbreviates: systemic / pathology microscopic / blood / leukemia mononuclear + systemic / pathology microscopic / esophagus / squamous cell papilloma + ….
Setting [16] is: systemic / pathology microscopic / mammary gland / fibroadenoma + systemic / pathology microscopic / oral mucosa / squamous cell papilloma….
[17] abbreviates: systemic / in life observation / body weight / body weight + systemic / in life observation / body weight / body weight gain + systemic / ….
Setting [18] is: systemic / in life observation / body weight / body weight gain.
Setting [19] is: systemic / in life observation / food consumption / food consumption + systemic / organ weight / brain / absolute + systemic / organ weight….
Setting [20] is: systemic / pathology microscopic / blood vessel / [other] + systemic / in life observation / clinical signs / [other] + systemic / in life ….
Setting [21] is: systemic / clinical chemistry / thyroxine (t4) / thyroxine (t4), total.
The mark [22] stands for this setting: systemic / pathology microscopic / liver / adenoma + systemic / pathology microscopic / lung / adenoma + systemic / clinical chemistry / ….
Where [23] appears, read: left thyroid + systemic / clinical chemistry / [other] / [other] + systemic / in life ….
The mark [24] stands for this setting: group: developmental, developmental / developmental malformation / bone / bent + developmental / developmental malformation / bone / incomplete ossification + ….
The mark [25] stands for this setting: group: maternal, reproductive / reproductive performance / postimplantation loss / postimplantation loss + reproductive / reproductive performance / ….
Where [26] appears, read: group: offspring, systemic / organ weight / liver / nos.
[27] abbreviates: group: parental, systemic / organ weight / testes / nos.
Where [28] appears, read: group: reproductive, reproductive / reproductive performance / precoital interval / precoital interval.

Turning to `CC(C)n1cc2c3c(cccc31)[C@H]1C[C@@H](C(=O)NC3CCCCC3)CN(C)[C@@H]1C2` [Amesergide], in the series with rabbit (setting [11]), the lowest-observed-adverse-effect level (LOAEL) was above 15 mg/kg/day, the NEL stood at 0.2 mg/kg/day and the NOAEL is at least 15 mg/kg/day. Also, the LEL in the series with rabbit (systemic / in life observation / food consumption / food consumption) amounted to 2 mg/kg/day. In the series with rat [1] (setting [12]), the LEL worked out at 30 mg/kg/day, the LOAEL was above 30 mg/kg/day, the NEL is 10 mg/kg/day and the NOAEL was at least 30 mg/kg/day. Also, in the series on rat [1] (setting [13]), the LEL came to 30 mg/kg/day, the LOAEL was above 30 mg/kg/day, the NEL stood at 10 mg/kg/day and the NOAEL is at least 30 mg/kg/day.
For `C1CN(CN2CCOCC2)CCO1` [4,4-Methylenedimorpholine], in the series with rat [2] (systemic / pathology microscopic / stomach / acanthosis + systemic / pathology microscopic / stomach / hyperkeratosis), the LOAEL worked out at 50 mg/kg/day. In the series with rat [2] (setting [14]), the NEL worked out at 15 mg/kg/day and the no observed adverse effect level (NOAEL) stood at 15 mg/kg/day. In addition, in the series on rat [2] (systemic / pathology microscopic / stomach / acanthosis + systemic / pathology microscopic / stomach / hyperkeratosis + systemic / in life …), the LEL was found to be 50 mg/kg/day.
For `OCC(CO)(CBr)CBr` [2,2-Bis(bromomethyl)-1,3-propanediol], the LOAEL with rat [3] (setting [15]) is above 430 mg/kg/day; in the series with rat [4] (setting [17]), 400 mg/kg/day; in the series with mouse [5] (setting [17]) it was 500 mg/kg/day; in the series with mouse [6] (systemic / pathology microscopic / lung / hyperplasia), 80 mg/kg/day. Also, the NOAEL in the series with rat [3] (setting [15]) was at least 430 mg/kg/day; with rat [4] (setting [17]) it was 200 mg/kg/day; in the series with mouse [5] (setting [17]), 200 mg/kg/day; with mouse [6] (systemic / pathology microscopic / lung / hyperplasia + systemic / pathology microscopic / blood vessel / [other] + systemic / pathology …) it was 40 mg/kg/day. The LEL with rat [3] (setting [16]) turned out to be 100 mg/kg/day; in the series with rat [4] (setting [18]), 100 mg/kg/day; in the series with mouse [5] (setting [19]), 100 mg/kg/day; with mouse [6] (setting [20]), 35 mg/kg/day. Moreover, the NEL is below 100 mg/kg/day with rat [3] (setting [16]), below 100 mg/kg/day in the series on rat [4] (setting [18]), below 100 mg/kg/day in the series with mouse [5] (setting [19]) and below 35 mg/kg/day in the series on mouse [6] (setting [20]).
On to `S=C([S-])NCCNC(=S)[S-].[Mn+2]` [Maneb], for which the LEL in the series with rat [7] (systemic / organ weight / adrenal gland / absolute) was determined as 21.8 mg/kg/day; with mouse [8] (setting [21]), 10.8 mg/kg/day; with primate (left thyroid) it was 15.5 mg/kg/day; with rat [9] (setting [24]), 500 mg/kg/day; with rat [9] (setting [25]) it was 100 mg/kg/day; with rat [10] (setting [26]), 5.8 mg/kg/day. In addition, the LEL in the series with rat [10] (setting [27]) was found to be 5.3 mg/kg/day; with rat [10] (setting [28]) it was 106 mg/kg/day; in the series on dog, 7.18 mg/kg/day. The NEL was 7.32 mg/kg/day in the series on rat [7] (systemic / organ weight / adrenal gland / absolute + systemic / pathology microscopic / pituitary gland / adenoma + systemic / pathology …); below 10.8 mg/kg/day in the series on mouse [8] (setting [21]); 5.2 mg/kg/day with primate (setting [23]); 100 mg/kg/day in the series with rat [9] (setting [24]); 20 mg/kg/day with rat [9] (setting [25]); below 5.8 mg/kg/day in the series with rat [10] (setting [26]). The NEL is below 5.3 mg/kg/day in the series with rat [10] (setting [27]), 25.1 mg/kg/day in the series on rat [10] (setting [28]) and 1.71 mg/kg/day with dog. Further, the LOAEL in the series on rat [7] (systemic / pathology microscopic / urinary bladder / dysplasia + systemic / clinical chemistry / [other] / [other] + systemic / clinical …) was 68.4 mg/kg/day; in the series with mouse [8] (setting [22]) it was above 355 mg/kg/day; in the series with primate (left thyroid), 15.5 mg/kg/day; in the series with rat [9] (setting [24]) it was above 500 mg/kg/day; in the series with rat [9] (setting [25]) it was 100 mg/kg/day; in the series on rat [10] (group: offspring, developmental / developmental landmark / vaginal opening / vaginal opening) it was 106 mg/kg/day. Besides, the LOAEL was 21.2 mg/kg/day in the series on rat [10] (group: parental, systemic / organ weight / lung / nos); above 106 mg/kg/day in the series on rat [10] (setting [28]); 33.8 mg/kg/day in the series with dog. Moreover, the NOAEL in the series with rat [7] (systemic / pathology microscopic / urinary bladder / dysplasia + systemic / pathology microscopic / skeletal muscle / sarcoma + systemic / …) is 20.4 mg/kg/day; in the series with mouse [8] (setting [22]) it was at least 355 mg/kg/day; in the series on primate (setting [23]) it was 5.2 mg/kg/day; with rat [9] (setting [24]), at least 500 mg/kg/day; in the series on rat [9] (setting [25]) it was 20 mg/kg/day; with rat [10] (group: offspring, developmental / developmental landmark / vaginal opening / vaginal opening + systemic / in life observation / body weight / offspring (pup) …), 25.1 mg/kg/day. The no-observed-adverse-effect level (NOAEL) in the series with rat [10] (group: parental, systemic / organ weight / lung / nos + systemic / in life observation / body weight / body weight + systemic / in life observation / body …) is 5.3 mg/kg/day; with rat [10] (setting [28]) it was at least 106 mg/kg/day; in the series with dog, 6.36 mg/kg/day.
